Measured values from the supplement of paper PMC11061612.

What was measured:
[1] = tested on: COR-L279 (Small Cell Lung Carcinoma); assay: combination Emax (second highest fraction inhibited in the dose matrix, 72 h); higher = more inhibition; extreme values may be limits of the assay
Procedure, shortened: (§1)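 After 24 hours at 37°C and 5% CO2 in 1536-well plates, cells in DMEM/F12 or RPMI plus 10% FBS received two-drug dose matrices for 72 hours. Viability came from CellTiter-Glo 2.0 luminescence and was scaled as inhibition, anchored at 0 by vehicle wells and at 1 by blank wells. Combination Emax is taken as the second-highest inhibition in the matrix, and Bliss excess as the observed combination effect less EA + EB − EA·EB, with EA and EB the single-agent effects.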

[2] = tested on: CW-2 (Colorectal Carcinoma); assay: Bliss excess, mean over the matrix (fraction); higher = more synergy
Procedure, shortened: as §1

[3] = tested on: MOG-G-CCM (Low Grade Glioma); assay: as above
Procedure, shortened: as §1

[4] = tested on: NCI-H3122 (Lung Adenocarcinoma); assay: as above
Procedure, shortened: as §1

SJSA-1 (Osteosarcoma) = assay: as above
Procedure, shortened: as §1

[5] = tested on: OCI-AML3 (Acute Myeloid Leukemia); assay: as above
Procedure, shortened: as §1

[6] = tested on: NCCIT (Other Solid Carcinomas); assay: as above
Procedure, shortened: as §1

[7] = tested on: KYSE-270 (Esophageal Squamous Cell Carcinoma); assay: as above
Procedure, shortened: as §1

[8] = tested on: NCI-H929 (Plasma Cell Myeloma); assay: as above
Procedure, shortened: as §1

[9] = tested on: KP-3 (Pancreatic Carcinoma); assay: as above
Procedure, shortened: as §1

[10] = tested on: VMRC-RCZ (Kidney Carcinoma); assay: as above
Procedure, shortened: as §1

[11] = tested on: KU812 (Chronic Myelogenous Leukemia); assay: as above
Procedure, shortened: as §1

[12] = tested on: NCI-H520 (Squamous Cell Lung Carcinoma); assay: as above
Procedure, shortened: as §1

[13] = tested on: MN-60 (B-Lymphoblastic Leukemia); assay: as above
Procedure, shortened: as §1

[14] = tested on: COR-L279 (Small Cell Lung Carcinoma); assay: as above
Procedure, shortened: as §1

NCI-H2731 (Mesothelioma) = assay: as above
Procedure, shortened: as §1

[15] = tested on: NCI-H526 (Small Cell Lung Carcinoma); assay: as above
Procedure, shortened: as §1

M059J (Glioblastoma) = assay: as above
Procedure, shortened: as §1

[16] = tested on: T-T (Esophageal Squamous Cell Carcinoma); assay: as above
Procedure, shortened: as §1

[17] = tested on: ST486 (Burkitt's Lymphoma); assay: as above
Procedure, shortened: as §1
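Throughout, for Bliss excess, mean over the matrix: after 72 h of two-drug dosing.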

Compound	combination Emax [1]	Bliss excess [2]	Bliss excess [3]	Bliss excess [4]	Bliss excess (SJSA-1 (Osteosarcoma))	Bliss excess [5]	Bliss excess [6]	Bliss excess [7]	Bliss excess [8]	Bliss excess [9]	Bliss excess [10]	Bliss excess [11]	Bliss excess [12]	Bliss excess [13]	Bliss excess [14]	Bliss excess (NCI-H2731 (Mesothelioma))	Bliss excess [15]	Bliss excess (M059J (Glioblastoma))	Bliss excess [16]	Bliss excess [17]
C=CCn1c(=O)c2cnc(Nc3ccc(N4CCN(C)CC4)cc3)nc2n1-c1cccc(C(C)(C)O)n1 [AZD1775] + CCc1c2c(nc3ccc(O)cc13)-c1cc3c(c(=O)n1C2)COC(=O)[C@]3(O)CC [SN-38] (first compound max 1 µM, partner max 0.3 µM)	1	-0.0515	-0.053	-0.0233	-0.0742	-0.103	-0.0342	0.0029	-0.0303	-0.067	-0.0623	-0.0318	-0.0637	-0.0244	-0.0425	-0.0744	-0.0476	0.0051	-0.031	-0.0359
CN(CCO)CC[C@H](CSc1ccccc1)Nc1ccc(S(=O)(=O)NC(=O)c2ccc(N3CCC([C@@H](O)c4ccccc4-c4ccc(Cl)cc4)CC3)cc2)cc1S(=O)(=O)C(F)(F)F [AZD4320] + CS(=O)(=O)CCNCc1ccc(-c2ccc3ncnc(Nc4ccc(OCc5cccc(F)c5)c(Cl)c4)c3c2)o1 [Lapatinib] (first compound max 1 µM, 7x7, partner max 10 µM)	1	-0.0322	-0.0278	0.0006	-0.085	0.0258	0.0212	-0.0254	0.0248	-0.0588	-0.0072	0.0801	-0.0382	-0.0716	0.0862	-0.0076	0.0898	0.0681	-0.0055	0.0668
Cc1c2c(nn1C)CSCc1cc(n(C)n1)CSc1cc(c3ccccc3c1)OCCCc1c(C(=O)O)n(C)c3c-2c(Cl)ccc13 [AZD5991] + CC(=O)O[C@H]1C(=O)[C@@]2(C)[C@H]([C@H](OC(=O)c3ccccc3)[C@]3(O)C[C@H](OC(=O)[C@H](O)[C@@H](NC(=O)c4ccccc4)c4ccccc4)C(C)=C1C3(C)C)[C@]1(OC(C)=O)CO[C@@H]1C[C@@H]2O [Paclitaxel] (first compound max 1 µM, 7x7, partner max 3 µM)	0.997	-0.0199	0.0341	-0.0003	-0.0168	0.0141	0.0449	-0.0116	-0.0219	-0.0622	-0.0234	-0.108	-0.0478	-0.0293	0.0035	0.0237	0.0061	-0.0193	-0.0016	-0.0046
C[C@@H]1COCCN1c1cc(C2([S@](C)(=N)=O)CC2)nc(-c2ccnc3[nH]ccc23)n1 [AZD6738] + C1CC(C1)(C(=O)[O-])C(=O)[O-].N.N.[Pt+2] [Carboplatin] (first compound max 10 µM, 7x7, partner max 10 µM)	0.635	-0.0212	-0.0204	-0.0999	-0.0152	-0.0326	-0.0274	0.0445	-0.0536	-0.0087	-0.0249	-0.0691	-0.0017	-0.119	-0.0178	-0.0109	-0.0076	-0.0647	-0.0661	-0.0501
Cc1cc2ncnn2cc1Nc1ncc2c(n1)n(C1CCOCC1)c(=O)n2C [AZD7648] + COc1cc([C@@H]2c3cc4c(cc3[C@@H](O[C@@H]3O[C@@H]5CO[C@@H](C)O[C@H]5[C@H](O)[C@H]3O)[C@H]3COC(=O)[C@H]23)OCO4)cc(OC)c1O [Etoposide] (first compound max 10 µM, 7x7, partner max 10 µM)	1	0.0573	0.106	0.0903	0.0316	0.123	0.0365	0.0627	0.033	-0.0136	0.0743	0.035	0.0639	0.06	0.149	0.08	0.121	0.003	0.0254	0.0989
C[C@@H](Nc1cc(F)cc(F)c1)c1cc(C(=O)N(C)C)cc2c(=O)cc(N3CCOCC3)oc12 [AZD8186] + C1CN(CCC1(C(=O)N[C@@H](CCO)C2=CC=C(C=C2)Cl)N)C3=NC=NC4=C3C=CN4 [AZD5363] (first compound max 10 µM, 7x7, partner max 10 µM)	0.679	-0.0086	-0.058	0.0211	-0.0208	0.031	0.0368	0.0302	-0.0035	-0.0207	-0.0134	-0.053	-0.034	-0.0655	0.0622	-0.0476	-0.0238	-0.0145	0.0073	-0.0265
